# Assay results from patent US20240360081A1, “SULFONAMIDE OREXIN RECEPTOR AGONISTS AND USES THEREOF” (Jazz Pharmaceuticals Ireland Limited, priority 2021, published 2024).
# Target: T1, human recombinant OX2 (hOX2) receptor expressed in CHO cells (Homo sapiens, UniProt O43614)
# T1 construct: host or cells: CHO cells (hOX2-CHO)
# T1 sequence (O43614 1-444): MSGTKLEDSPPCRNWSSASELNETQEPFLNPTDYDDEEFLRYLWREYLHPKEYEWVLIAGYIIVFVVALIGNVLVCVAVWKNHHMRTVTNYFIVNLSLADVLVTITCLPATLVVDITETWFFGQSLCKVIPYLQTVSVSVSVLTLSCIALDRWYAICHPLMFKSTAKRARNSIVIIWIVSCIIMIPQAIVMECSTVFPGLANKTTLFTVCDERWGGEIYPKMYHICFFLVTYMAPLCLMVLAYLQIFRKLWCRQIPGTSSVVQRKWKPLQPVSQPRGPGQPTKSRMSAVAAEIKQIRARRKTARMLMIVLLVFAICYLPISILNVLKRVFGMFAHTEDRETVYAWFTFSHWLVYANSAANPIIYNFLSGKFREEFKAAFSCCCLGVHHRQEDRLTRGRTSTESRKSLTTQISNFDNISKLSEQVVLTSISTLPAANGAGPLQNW
# Experiment: IP-1 accumulation assay (IP-One HTRF) in hOX2-CHO cells
# Format: cell-based
# Conditions: 60 min at 37° C., 11 points CRC, response as % of maximal OX-A response
# Method in brief: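 CHO cells expressing hOX2, 20,000 cells/well in HBSS with 20 mM HEPES pH 7.4, 50 mM LiCl, 0.1% BSA; 11-point compound series, 0.5% DMSO final, 60 min at 37 °C. IP-1 by HTRF (665/615 ratio) after 60 min at room temperature, as % of maximal OX-A response; EC50 by four-parameter logistic fit, mean of ≥2 experiments in duplicate.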
row,Structure (SMILES),EC50 [nM]
1,"Cc1cc(C(CNS(C)(=O)=O)CO[C@H]2CC[C@@H](c3cccc(F)c3)CC2)c(=O)n(C(F)F)c1 (stereo partly drawn) [Example 5x, N-{2-[1-(difluoromethyl)-5-methyl-2-oxo-1,2-dihydropyridin-3-yl]-3-{[(CIS)-4-(3-fluorophenyl)cyclohexyl]oxy}propyl}methanesulfonamide]",< 100
2,"Cc1cc(C)c(=O)n(C(CNS(C)(=O)=O)CO[C@H]2CC[C@@H](c3ccccc3)CC2)c1 (single isomer, unassigned; isomer 1) [Example 2t, (R or S) N-[2-(3,5-dimethyl-2-oxo-1,2-dihydropyridin-1-yl)-3-{[(CIS)-4-phenylcyclohexyl]oxy}propyl]methanesulfonamide-Isomer 1]",< 100
3,"Cc1cncn(C(CNS(C)(=O)=O)CO[C@H]2CC[C@@H](c3ccccc3)CC2)c1=O (stereo partly drawn) [Example 2aj, N-[2-(5-methyl-6-oxo-1,6-dihydropyrimidin-1-yl)-3-{[(CIS)-4-phenylcyclohexyl]oxy}propyl]methanesulfonamide]",> 10000
4,"CCC[C@H]1CC[C@@H](OCC(CNS(=O)(=O)N(C)C)n2cc(C)cc(C)c2=O)CC1 (stereo partly drawn) [Example 2bb, 1-{1-[(dimethylsulfamoyl)amino]-3-{[(CIS)-4-propylcyclohexyl]oxy}propan-2-yl}-3,5-dimethyl-1,2-dihydropyridin-2-one]",< 100
5,"CCc1cccn(C(CNS(C)(=O)=O)CO[C@H]2CC[C@@H](c3ccccc3)CC2)c1=O (single isomer, unassigned; isomer 1) [Example 2a, (R or S) N-[2-(3-ethyl-2-oxo-1,2-dihydropyridin-1-yl)-3-{[(CIS)-4-phenylcyclohexyl]oxy}propyl]methanesulfonamide-Isomer 1]",> 10000
6,"Cc1cccn(C(CNS(C)(=O)=O)CO[C@H]2CC[C@@H](c3ccccc3)CC2)c1=O (single isomer, unassigned; isomer 2) [Example 1e, (S or R) N-[(2R)-2-(3-methyl-2-oxo-1,2-dihydropyridin-1-yl)-3-{[(CIS)-4-phenylcyclo-hexyl]oxy}propyl] methane-sulfonamide- Isomer 2]",100 to 1000
7,"Cc1cccn(C(CO[C@H]2CC[C@@H](c3ccccc3)CC2)C(C)NS(C)(=O)=O)c1=O (single isomer, unassigned; isomer 2) [Example 3b, (2S or 2R) and (3S or 3R) N-[3-(3-methyl-2-oxo-1,2-dihydropyridin-1-yl)-4-{[(CIS)-4-phenylcyclohexyl]oxy}butan-2-yl]methanesulfonamide—Isomer 2]",1000 to 10000
8,"Cc1cc(C)c(=O)n(C(CNS(=O)(=O)N(C)C)CO[C@H]2CC[C@@H](c3cccc(F)c3)CC2)c1 (single isomer, unassigned; isomer 2) [Example 2as, (S or R) 1-[1-[(dimethylsulfamoyl)amino]-3-{[(CIS)-4-(3-fluorophenyl)cyclohexyl]oxy}propan-2-yl]-3,5-dimethyl-1,2-dihydropyridin-2-one-Isomer 2]",100 to 1000
9,"Cc1cc(C(CNS(=O)(=O)CF)CO[C@H]2CC[C@@H](c3cccc(F)c3)CC2)c(=O)n(C)c1 (single isomer, unassigned; isomer 2) [Example 5o, (S or R) N-[2-(1,5-dimethyl-2-oxo-1,2-dihydropyridin-3-yl)-3-{[(CIS)-4-(3-fluorophenyl)cyclohexyl]oxy}propyl]-1-fluoromethanesulfonamide—Isomer 2]",100 to 1000
10,"Cc1cc(C)[n+]([O-])c(C(CNS(C)(=O)=O)CO[C@H]2CC[C@@H](c3ccccc3)CC2)c1 (stereo partly drawn) [Example 5j, 2-(1-methanesulfonamido-3-{[(CIS)-4-phenylcyclohexyl]oxy}propan-2-yl)-4,6-dimethylpyridin-1-ium-1-olate]",< 100
11,"COc1ccn(C)c(=O)c1C(CNS(C)(=O)=O)CO[C@H]1CC[C@@H](c2ccccc2)CC1 (stereo partly drawn) [Example 5b, N-[2-(4-methoxy-1-methyl-2-oxo-1,2-dihydropyridin-3-yl)-3-{[(CIS)-4-phenylcyclohexyl]oxy}propyl]methanesulfonamide]",1000 to 10000
12,"Cc1cccn(C(CO[C@H]2CC[C@@H](c3ccccc3)CC2)C(C)NS(C)(=O)=O)c1=O (single isomer, unassigned; isomer 1) [Example 3a, (2R or 2S) and (3R or 3S) N-[3-(3-methyl-2-oxo-1,2-dihydropyridin-1-yl)-4-{[(CIS)-4-phenylcyclohexyl]oxy}butan-2-yl]methanesulfonamide—Isomer 1]",1000 to 10000
13,"CS(=O)(=O)NCC(CO[C@H]1CC[C@@H](c2ccccc2)CC1)n1ccc(C#N)cc1=O (stereo partly drawn) [Example 2y, N-[2-(4-cyano-2-oxo-1,2-dihydropyridin-1-yl)-3-{[(CIS)-4-phenylcyclohexyl]oxy}propyl]methanesulfonamide]",> 10000
14,"Cc1cc(C(CNS(=O)(=O)N(C)C)CO[C@H]2CC[C@@H](c3cccc(F)c3)CC2)c(=O)n(C(F)F)c1 (stereo partly drawn) [Example 5aa, 1-(difluoromethyl)-3-{1-[(dimethylsulfamoyl)amino]-3-{[(CIS)-4-(3-fluorophenyl)cyclohexyl]oxy}propan-2-yl}-5-methyl-1,2-dihydropyridin-2-one]",< 100
15,"Cc1cccn(C(CO[C@H]2CC[C@@H](c3ccccc3)CC2)C(C)NS(C)(=O)=O)c1=O (single isomer, unassigned; isomer 4) [Example 3d, (2R or 2S) and (3S or 3R) N-[3-(3-methyl-2-oxo-1,2-dihydropyridin-1-yl)-4-{[(CIS)-4-phenylcyclohexyl]oxy}butan-2-yl]methanesulfonamide—Isomer 4]",1000 to 10000
16,"Cc1ccn(C(CNS(C)(=O)=O)CO[C@H]2CC[C@@H](c3ccccc3)CC2)c(=O)c1C (stereo partly drawn) [Example 2m, N-[2-(3,4-dimethyl-2-oxo-1,2-dihydropyridin-1-yl)-3-{[(CIS)-4-phenylcyclohexyl]oxy}propyl]methanesulfonamide]",100 to 1000
17,"Cc1cc(C(CNS(C)(=O)=O)COC2CCN(c3ncc(F)cn3)CC2)c(=O)n(C)c1 (stereo not shown) [Example 5p, N-[2-(1,5-dimethyl-2-oxo-1,2-dihydropyridin-3-yl)-3-{[1-(5-fluoropyrimidin-2-yl)piperidin-4-yl]oxy}propyl]methanesulfonamide]",> 10000
18,"Cn1cccc(C(CNS(C)(=O)=O)CO[C@H]2CC[C@@H](c3ccccc3)CC2)c1=O (single isomer, unassigned; isomer 2) [Example 4b, (S or R) N-[2-(1-methyl-2-oxo-1,2-dihydropyridin-3-yl)-3-{[(CIS)-4-phenylcyclohexyl]oxy}propyl]methanesulfonamide—Isomer 2]",> 10000
19,"Cc1cccn(C(CO[C@H]2CC[C@@H](c3ccccc3)CC2)C(C)NS(C)(=O)=O)c1=O (single isomer, unassigned; isomer 3) [Example 3c, (2S or 2R) and (3R or 3S) N-[3-(3-methyl-2-oxo-1,2-dihydropyridin-1-yl)-4-{[(CIS)-4-phenylcyclohexyl]oxy}butan-2-yl]methanesulfonamide—Isomer 3]",> 10000
20,"Cc1ccnn1C(CNS(C)(=O)=O)CO[C@H]1CC[C@@H](c2ccccc2)CC1 (single isomer, unassigned; isomer 1) [Example 2ad, (R or S) N-[2-(5-methyl-1H-pyrazol-1-yl)-3-{[(CIS)-4-phenylcyclohexyl]oxy}propyl]methanesulfonamide-Isomer 1]",> 10000
21,"Cc1ccn(C(CNS(C)(=O)=O)CO[C@H]2CC[C@@H](c3ccccc3)CC2)c(=O)c1C (single isomer, unassigned; isomer 1) [Example 2n, (R or S) N-[2-(3,4-dimethyl-2-oxo-1,2-dihydropyridin-1-yl)-3-{[(CIS)-4-phenylcyclohexyl]oxy}propyl]methanesulfonamide-Isomer 1]",100 to 1000
22,"Cc1cc(C(CNS(=O)(=O)N(C)C)CO[C@H]2CC[C@@H](c3cccc(F)c3)CC2)c(=O)n(C(F)F)c1 (single isomer, unassigned; isomer 1) [Example 5ab, (R or S) 1-(difluoromethyl)-3-[1-[(dimethylsulfamoyl)amino]-3-{[(CIS)-4-(3-fluorophenyl)cyclohexyl]oxy}propan-2-yl]-5-methyl-1,2-dihydropyridin-2-one—Isomer 1]",< 100
23,"CS(=O)(=O)NCC(CO[C@H]1CC[C@@H](c2ccccc2)CC1)n1cccc(F)c1=O (single isomer, unassigned; isomer 1) [Example 2g, (R or S) N-[2-(3-fluoro-2-oxo-1,2-dihydropyridin-1-yl)-3-{[(CIS)-4-phenylcyclohexyl]oxy}propyl]methanesulfonamide-Isomer 1]",1000 to 10000
24,"Cc1cc(C(CNS(=O)(=O)CF)CO[C@H]2CC[C@@H](c3cc(F)cc(F)c3)CC2)c(=O)n(C)c1 (relative stereo) [Example 5t, N-[2-(1,5-dimethyl-2-oxo-1,2-dihydropyridin-3-yl)-3-{[(CIS)-4-(3,5-difluorophenyl)cyclohexyl]oxy}propyl]-1-fluoromethanesulfonamide]",< 100
25,"Cc1cc(C(CNS(=O)(=O)N(C)C)CO[C@H]2CC[C@@H](c3ccccc3)CC2)n2nccc2c1 (stereo partly drawn) [Example 5g, dimethyl[(2-{5-methylpyrazolo[1,5-a]pyridin-7-yl}-3-{[(CIS)-4-phenylcyclohexyl]oxy}propyl)sulfamoyl]amine]",100 to 1000
